Key:
Assay in all cases: Bliss excess, mean over the matrix (fraction); higher = more synergy
[1] = tested on: DB (B-Cell Non-Hodgkin's Lymphoma)
In short: (§1)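 Cell lines in DMEM/F12 or RPMI with 10% FBS were plated in 1536-well plates, held 24 hours at 37°C, 5% CO2, then given two-drug dose matrices for 72 hours (DMSO typically 0.2%). Viability was read by CellTiter-Glo 2.0 luminescence and scaled as inhibition from 0 (vehicle wells) to 1 (blank wells). Combination Emax is the second-highest inhibition in the matrix; Bliss excess is observed combination effect minus expected EA + EB − EA·EB, EA and EB being single-agent effects.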

[2] = tested on: TGBC24TKB (Biliary Tract Carcinoma)
In short: as §1

[3] = tested on: HCC2157 (Breast Carcinoma)
In short: as §1

[4] = tested on: MDA-MB-157 (Breast Carcinoma)
In short: as §1

[5] = tested on: SW1990 (Pancreatic Carcinoma)
In short: as §1

[6] = tested on: SUIT-2 (Pancreatic Carcinoma)
In short: as §1

[7] = tested on: HPAC (Pancreatic Carcinoma)
In short: as §1

[8] = tested on: DOV13 (Ovarian Carcinoma)
In short: as §1

[9] = tested on: MFH-ino (Other Solid Carcinomas)
In short: as §1

[10] = tested on: EM-2 (Chronic Myelogenous Leukemia)
In short: as §1

J82 (Bladder Carcinoma) = tested on: J82 (Bladder Carcinoma)
In short: as §1

[11] = tested on: SW1088 (Low Grade Glioma)
In short: as §1

IGR-1 (Melanoma) = tested on: IGR-1 (Melanoma)
In short: as §1

CAL-78 (Chondrosarcoma) = tested on: CAL-78 (Chondrosarcoma)
In short: as §1

[12] = tested on: G-292-Clone-A141B1 (Osteosarcoma)
In short: as §1

[13] = tested on: SW756 (Cervical Carcinoma)
In short: as §1

[14] = tested on: KATOIII (Gastric Carcinoma)
In short: as §1

[15] = tested on: NALM-6 (B-Lymphoblastic Leukemia)
In short: as §1

[16] = tested on: HT-29 (Colorectal Carcinoma)
In short: as §1

[17] = tested on: IHH-4 (Thyroid Gland Carcinoma)
In short: as §1

## Cc1cc2ncnn2cc1Nc1ncc2c(n1)n(C1CCOCC1)c(=O)n2C [AZD7648] + C[C@@H]1COCCN1C2=NC(=NC(=C2)C3(CC3)[S@](=N)(=O)C)C4=C5C=CNC5=NC=C4 [AZD6738] (first compound max 10 µM, 7x7, partner max 10 µM)
[1]
  Bliss excess: -0.0509
[2]
  Bliss excess: 0.0117
[3]
  Bliss excess: -0.0528
[4]
  Bliss excess: -0.0029
[5]
  Bliss excess: 0.0049
[6]
  Bliss excess: -0.0306
[7]
  Bliss excess: 0.0187
[8]
  Bliss excess: -0.0039
[9]
  Bliss excess: -0.0002
[10]
  Bliss excess: -0.0013
J82 (Bladder Carcinoma)
  Bliss excess: -0.0122
[11]
  Bliss excess: 0.0289
IGR-1 (Melanoma)
  Bliss excess: 0.0074
CAL-78 (Chondrosarcoma)
  Bliss excess: 0.0344
[12]
  Bliss excess: 0.0274
[13]
  Bliss excess: 0.0048
[14]
  Bliss excess: -0.064
[15]
  Bliss excess: -0.0561
[16]
  Bliss excess: 0.0118
[17]
  Bliss excess: 0.0366

## Cc1cc2ncnn2cc1Nc1ncc2c(n1)n(C1CCOCC1)c(=O)n2C [AZD7648] + O=C(c1cc(Cc2n[nH]c(=O)c3ccccc23)ccc1F)N1CCN(C(=O)C2CC2)CC1 [Olaparib] (first compound max 10 µM, 7x7, partner max 10 µM)
[1]
  Bliss excess: -0.0564
[2]
  Bliss excess: -0.0128
[3]
  Bliss excess: 0.0073
[4]
  Bliss excess: -0.0251
[5]
  Bliss excess: -0.054
[6]
  Bliss excess: 0.0151
[7]
  Bliss excess: -0.0261
[8]
  Bliss excess: -0.0556
[9]
  Bliss excess: -0.0705
[10]
  Bliss excess: 0.0036
J82 (Bladder Carcinoma)
  Bliss excess: 0.0357
[11]
  Bliss excess: -0.067
IGR-1 (Melanoma)
  Bliss excess: -0.0032
CAL-78 (Chondrosarcoma)
  Bliss excess: -0.0726
[12]
  Bliss excess: -0.0855
[13]
  Bliss excess: -0.0174
[14]
  Bliss excess: -0.0367
[15]
  Bliss excess: -0.027
[16]
  Bliss excess: -0.0265
[17]
  Bliss excess: -0.0313

## NC1(C(=O)N[C@@H](CCO)c2ccc(Cl)cc2)CCN(c2ncnc3[nH]ccc23)CC1 [Capivasertib] + CC(=O)c1c(C)c2cnc(Nc3ccc(N4CCNCC4)cn3)nc2n(C2CCCC2)c1=O [Palbociclib] (first compound max 10 µM, 7x7, partner max 10 µM)
[1]
  Bliss excess: 0.0453
[2]
  Bliss excess: -0.0216
[3]
  Bliss excess: -0.0052
[4]
  Bliss excess: 0.0439
[5]
  Bliss excess: -0.0404
[6]
  Bliss excess: -0.0047
[7]
  Bliss excess: 0.0004
[8]
  Bliss excess: 0.0055
[9]
  Bliss excess: -0.0353
[10]
  Bliss excess: -0.0552
J82 (Bladder Carcinoma)
  Bliss excess: -0.0134
[11]
  Bliss excess: 0.0361
IGR-1 (Melanoma)
  Bliss excess: -0.0028
CAL-78 (Chondrosarcoma)
  Bliss excess: -0.0424
[12]
  Bliss excess: 0.0166
[13]
  Bliss excess: -0.0499
[14]
  Bliss excess: -0.0242
[15]
  Bliss excess: -0.0107
[16]
  Bliss excess: 0.0086
[17]
  Bliss excess: 0.0815

## NC1(C(=O)N[C@@H](CCO)c2ccc(Cl)cc2)CCN(c2ncnc3[nH]ccc23)CC1 [Capivasertib] + CC(C)n1c(=O)n(C)c2cnc3cc(F)c(-c4ccc(OCCCN5CCCCC5)nc4)cc3c21 [AZD1390] (first compound max 10 µM, 7x7, partner max 0.3 µM)
[1]
  Bliss excess: -0.0494
[2]
  Bliss excess: -0.0261
[3]
  Bliss excess: 0.002
[4]
  Bliss excess: -0.0306
[5]
  Bliss excess: -0.05
[6]
  Bliss excess: -0.0441
[7]
  Bliss excess: -0.0699
[8]
  Bliss excess: -0.0407
[9]
  Bliss excess: -0.0771
[10]
  Bliss excess: -0.0446
J82 (Bladder Carcinoma)
  Bliss excess: -0.0659
[11]
  Bliss excess: -0.0822
IGR-1 (Melanoma)
  Bliss excess: -0.0607
CAL-78 (Chondrosarcoma)
  Bliss excess: -0.0382
[12]
  Bliss excess: -0.0453
[13]
  Bliss excess: -0.0647
[14]
  Bliss excess: -0.118
[15]
  Bliss excess: -0.0863
[16]
  Bliss excess: -0.0376
[17]
  Bliss excess: -0.0074

## NC1(C(=O)N[C@@H](CCO)c2ccc(Cl)cc2)CCN(c2ncnc3[nH]ccc23)CC1 [Capivasertib] + CCN(CCO)CCCOc1ccc2c(Nc3cc(CC(=O)Nc4cccc(F)c4)[nH]n3)ncnc2c1 [AZD2811] (first compound max 10 µM, 7x7, partner max 1 µM)
[1]
  Bliss excess: 0.0338
[2]
  Bliss excess: 0.0111
[3]
  Bliss excess: -0.0286
[4]
  Bliss excess: 0.0354
[5]
  Bliss excess: -0.033
[6]
  Bliss excess: -0.0074
[7]
  Bliss excess: -0.049
[8]
  Bliss excess: -0.0392
[9]
  Bliss excess: -0.0542
[10]
  Bliss excess: -0.0463
J82 (Bladder Carcinoma)
  Bliss excess: -0.0018
[11]
  Bliss excess: -0.0088
IGR-1 (Melanoma)
  Bliss excess: 0.0077
CAL-78 (Chondrosarcoma)
  Bliss excess: 0.024
[12]
  Bliss excess: 0.0116
[13]
  Bliss excess: -0.0299
[14]
  Bliss excess: -0.0213
[15]
  Bliss excess: -0.0987
[16]
  Bliss excess: -0.0137
[17]
  Bliss excess: 0.0289

## NC1(C(=O)N[C@@H](CCO)c2ccc(Cl)cc2)CCN(c2ncnc3[nH]ccc23)CC1 [Capivasertib] + COc1nnc2ccc(N3CCC(c4ccc(OCCN5CCN(C)C(=O)[C@H]5C)cc4)CC3)nn12 [AZD5153] (first compound max 10 µM, 7x7, partner max 1 µM)
[1]
  Bliss excess: -0.0003
[2]
  Bliss excess: 0.0597
[3]
  Bliss excess: -0.008
[4]
  Bliss excess: 0.0204
[5]
  Bliss excess: -0.0086
[6]
  Bliss excess: 0.0367
[7]
  Bliss excess: 0.0657
[8]
  Bliss excess: -0.0489
[9]
  Bliss excess: 0.0006
[10]
  Bliss excess: 0.0043
J82 (Bladder Carcinoma)
  Bliss excess: 0.0421
[11]
  Bliss excess: 0.0253
IGR-1 (Melanoma)
  Bliss excess: -0.0325
CAL-78 (Chondrosarcoma)
  Bliss excess: 0.0536
[12]
  Bliss excess: 0.0249
[13]
  Bliss excess: 0.0197
[14]
  Bliss excess: -0.0386
[15]
  Bliss excess: -0.0517
[16]
  Bliss excess: -0.0029
[17]
  Bliss excess: 0.0199

## NC1(C(=O)N[C@@H](CCO)c2ccc(Cl)cc2)CCN(c2ncnc3[nH]ccc23)CC1 [Capivasertib] + C[C@@H]1COCCN1C2=NC(=NC(=C2)C3(CC3)[S@](=N)(=O)C)C4=C5C=CNC5=NC=C4 [AZD6738] (first compound max 10 µM, 7x7, partner max 10 µM)
[1]
  Bliss excess: -0.0769
[2]
  Bliss excess: -0.0104
[3]
  Bliss excess: -0.0175
[4]
  Bliss excess: -0.0365
[5]
  Bliss excess: -0.0259
[6]
  Bliss excess: -0.0351
[7]
  Bliss excess: -0.0425
[8]
  Bliss excess: -0.062
[9]
  Bliss excess: -0.086
[10]
  Bliss excess: -0.0512
J82 (Bladder Carcinoma)
  Bliss excess: -0.065
[11]
  Bliss excess: -0.0619
IGR-1 (Melanoma)
  Bliss excess: -0.0227
CAL-78 (Chondrosarcoma)
  Bliss excess: -0.0695
[12]
  Bliss excess: -0.0276
[13]
  Bliss excess: 0.0407
[14]
  Bliss excess: -0.0941
[15]
  Bliss excess: -0.0686
[16]
  Bliss excess: -0.0396
[17]
  Bliss excess: 0.0028

Source: the supplement of paper PMC11061612
